Holding throughout (type): biochemical
For one assay, the target named is PTPε (Homo sapiens, UniProt P23469). The assay is described as follows: PTP inhibition assay (pNPP).
In the next assay the target is PTPα (Homo sapiens, UniProt P18433). The assay is described as follows: PTP inhibition assay (pNPP).
The target in a further assay is PTPγ (Homo sapiens, UniProt P23470). The experiment in a line: PTP inhibition assay (pNPP).
A further assay has as its target T1, Meg2 (Homo sapiens, UniProt P43378).
T1 sequence (P43378 1-593): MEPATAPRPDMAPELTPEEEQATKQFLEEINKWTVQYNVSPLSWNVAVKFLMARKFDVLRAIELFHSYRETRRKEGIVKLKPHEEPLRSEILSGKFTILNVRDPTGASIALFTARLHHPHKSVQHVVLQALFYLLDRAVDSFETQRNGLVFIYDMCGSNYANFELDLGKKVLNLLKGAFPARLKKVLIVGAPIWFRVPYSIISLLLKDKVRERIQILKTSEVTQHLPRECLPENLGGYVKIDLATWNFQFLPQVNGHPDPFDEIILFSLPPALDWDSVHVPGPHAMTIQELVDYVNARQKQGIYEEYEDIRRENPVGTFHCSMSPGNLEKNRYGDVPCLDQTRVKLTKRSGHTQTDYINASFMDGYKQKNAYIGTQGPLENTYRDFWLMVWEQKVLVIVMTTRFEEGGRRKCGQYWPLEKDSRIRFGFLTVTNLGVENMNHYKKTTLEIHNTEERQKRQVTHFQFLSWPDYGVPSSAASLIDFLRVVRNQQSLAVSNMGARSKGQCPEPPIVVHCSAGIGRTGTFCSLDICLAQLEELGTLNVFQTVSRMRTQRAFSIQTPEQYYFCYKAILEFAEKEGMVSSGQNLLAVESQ
The assay is described as follows: PTP inhibition assay (pNPP).

A further assay has as its target T2, VHX (Homo sapiens, UniProt Q9NRW4).
T2 sequence (Q9NRW4 1-184): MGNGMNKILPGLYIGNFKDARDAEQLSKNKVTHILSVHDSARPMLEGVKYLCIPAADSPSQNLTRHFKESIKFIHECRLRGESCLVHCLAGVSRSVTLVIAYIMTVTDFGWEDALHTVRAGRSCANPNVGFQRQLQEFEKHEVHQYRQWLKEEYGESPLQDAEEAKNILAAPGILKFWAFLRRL
The experiment in a line: PTP inhibition assay (pNPP).

Another assay concerns the target VHR (Homo sapiens, UniProt P51452). The experiment in a line: PTP inhibition assay (pNPP). The conditions noted are these: pNPP at Km, pH 7.0, 25° C.
The next assay concerns the target T3, PTP1B (Homo sapiens, UniProt P18031).
T3 sequence (P18031 1-435): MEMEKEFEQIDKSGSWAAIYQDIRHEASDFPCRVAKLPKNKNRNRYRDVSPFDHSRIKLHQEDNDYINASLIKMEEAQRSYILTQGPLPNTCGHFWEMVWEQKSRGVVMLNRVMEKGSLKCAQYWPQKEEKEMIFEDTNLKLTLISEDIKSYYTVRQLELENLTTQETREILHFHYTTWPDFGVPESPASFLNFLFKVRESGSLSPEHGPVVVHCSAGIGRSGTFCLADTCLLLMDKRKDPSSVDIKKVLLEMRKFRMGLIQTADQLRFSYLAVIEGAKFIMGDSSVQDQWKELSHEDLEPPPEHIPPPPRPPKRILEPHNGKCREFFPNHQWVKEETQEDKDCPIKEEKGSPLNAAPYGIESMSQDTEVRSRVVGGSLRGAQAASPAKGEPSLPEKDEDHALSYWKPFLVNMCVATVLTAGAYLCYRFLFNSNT
The experiment in a line: PTP inhibition assay (pNPP). Conditions: pNPP at Km, pH 7.0, 25° C.

A further assay deals with T4, SHP2 (Homo sapiens, UniProt Q06124).
T4 sequence (Q06124 224-528): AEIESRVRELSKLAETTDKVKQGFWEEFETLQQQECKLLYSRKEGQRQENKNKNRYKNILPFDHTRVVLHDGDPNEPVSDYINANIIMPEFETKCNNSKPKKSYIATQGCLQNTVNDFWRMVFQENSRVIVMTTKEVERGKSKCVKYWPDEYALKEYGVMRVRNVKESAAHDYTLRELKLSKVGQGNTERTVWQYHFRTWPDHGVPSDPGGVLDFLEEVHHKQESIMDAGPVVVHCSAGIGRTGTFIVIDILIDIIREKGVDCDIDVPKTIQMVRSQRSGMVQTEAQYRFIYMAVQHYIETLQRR
The assay is described as follows: SHP2 phosphatase inhibition assay (pNPP). Conditions: pNPP at Km, pH 7.0, 25° C.; read-out: IC50 SHP2.

For another assay, the target named is T5, TcPTP (Homo sapiens, UniProt P17706).
T5 sequence (P17706 1-415): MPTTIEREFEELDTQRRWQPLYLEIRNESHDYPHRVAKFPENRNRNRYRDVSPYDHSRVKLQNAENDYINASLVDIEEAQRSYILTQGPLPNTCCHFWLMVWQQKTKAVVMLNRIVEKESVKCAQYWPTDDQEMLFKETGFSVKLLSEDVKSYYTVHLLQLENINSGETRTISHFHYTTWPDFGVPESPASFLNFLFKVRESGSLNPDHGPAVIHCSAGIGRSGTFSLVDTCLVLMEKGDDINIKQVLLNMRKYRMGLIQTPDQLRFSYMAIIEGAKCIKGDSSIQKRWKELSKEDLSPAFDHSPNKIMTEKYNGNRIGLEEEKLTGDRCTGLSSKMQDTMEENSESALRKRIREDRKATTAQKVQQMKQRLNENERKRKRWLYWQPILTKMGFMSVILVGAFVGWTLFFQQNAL
The assay is described as follows: PTP inhibition assay (pNPP).

Setting [1] is: IC50 VHX (second VHX line of Table 15), pNPP at Km, pH 7.0, 25° C.
The mark [2] stands for this setting: IC50 VHX, pNPP at Km, pH 7.0, 25° C.
[3] abbreviates: pNPP at Km, pH 7.0, 25° C.; read-out: IC50 VHX.
[4] abbreviates: pNPP at Km, pH 7.0, 25° C.; read-out: IC50 VHX (second VHX line of Table 15).
Where [5] appears, read: pNPP at Km, pH 7.0, 25° C., read-out: IC50 TcPTP.

Values joined by “and” are separate entries in the source; they are usually repeats but may differ in a detail not shown here. Equal entries are not always repeated. Where two headings read alike, the source gives them in different places.

PTPγ, sequence (P23470 20-1445): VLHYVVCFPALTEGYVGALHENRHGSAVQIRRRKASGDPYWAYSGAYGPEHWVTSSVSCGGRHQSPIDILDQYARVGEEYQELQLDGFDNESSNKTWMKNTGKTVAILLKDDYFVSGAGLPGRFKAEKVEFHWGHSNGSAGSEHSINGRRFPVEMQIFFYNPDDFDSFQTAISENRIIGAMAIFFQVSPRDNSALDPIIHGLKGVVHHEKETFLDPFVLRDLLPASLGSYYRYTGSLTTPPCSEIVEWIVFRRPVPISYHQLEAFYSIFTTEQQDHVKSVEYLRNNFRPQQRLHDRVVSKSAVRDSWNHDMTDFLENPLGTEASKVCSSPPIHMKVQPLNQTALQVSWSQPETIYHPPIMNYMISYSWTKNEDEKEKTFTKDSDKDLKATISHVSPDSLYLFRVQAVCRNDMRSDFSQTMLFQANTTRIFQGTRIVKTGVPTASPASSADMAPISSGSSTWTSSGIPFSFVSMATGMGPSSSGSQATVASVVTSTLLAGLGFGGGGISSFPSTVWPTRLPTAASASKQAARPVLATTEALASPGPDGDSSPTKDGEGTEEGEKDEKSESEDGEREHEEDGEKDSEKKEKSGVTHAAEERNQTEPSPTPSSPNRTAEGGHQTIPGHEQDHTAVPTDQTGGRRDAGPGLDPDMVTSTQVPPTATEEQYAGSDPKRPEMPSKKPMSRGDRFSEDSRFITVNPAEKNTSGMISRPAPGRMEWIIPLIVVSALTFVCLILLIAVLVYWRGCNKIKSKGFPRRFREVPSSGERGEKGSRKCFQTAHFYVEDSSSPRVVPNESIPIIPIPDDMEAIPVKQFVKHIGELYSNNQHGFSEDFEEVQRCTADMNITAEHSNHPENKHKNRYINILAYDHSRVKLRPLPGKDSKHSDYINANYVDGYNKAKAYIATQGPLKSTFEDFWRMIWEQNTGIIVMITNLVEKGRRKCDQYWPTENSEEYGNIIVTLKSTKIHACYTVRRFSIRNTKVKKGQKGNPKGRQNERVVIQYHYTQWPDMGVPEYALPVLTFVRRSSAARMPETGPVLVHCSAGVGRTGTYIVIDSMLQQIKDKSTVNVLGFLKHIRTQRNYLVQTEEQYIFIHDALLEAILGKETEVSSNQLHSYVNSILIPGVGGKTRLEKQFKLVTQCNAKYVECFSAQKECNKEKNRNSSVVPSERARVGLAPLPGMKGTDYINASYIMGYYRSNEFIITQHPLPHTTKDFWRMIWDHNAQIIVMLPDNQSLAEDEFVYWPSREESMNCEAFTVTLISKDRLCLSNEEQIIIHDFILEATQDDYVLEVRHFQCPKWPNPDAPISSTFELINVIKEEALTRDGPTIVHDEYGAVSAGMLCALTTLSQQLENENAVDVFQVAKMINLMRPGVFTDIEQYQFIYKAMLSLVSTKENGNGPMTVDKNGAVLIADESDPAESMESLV
PTPε, sequence (P23469 20-700): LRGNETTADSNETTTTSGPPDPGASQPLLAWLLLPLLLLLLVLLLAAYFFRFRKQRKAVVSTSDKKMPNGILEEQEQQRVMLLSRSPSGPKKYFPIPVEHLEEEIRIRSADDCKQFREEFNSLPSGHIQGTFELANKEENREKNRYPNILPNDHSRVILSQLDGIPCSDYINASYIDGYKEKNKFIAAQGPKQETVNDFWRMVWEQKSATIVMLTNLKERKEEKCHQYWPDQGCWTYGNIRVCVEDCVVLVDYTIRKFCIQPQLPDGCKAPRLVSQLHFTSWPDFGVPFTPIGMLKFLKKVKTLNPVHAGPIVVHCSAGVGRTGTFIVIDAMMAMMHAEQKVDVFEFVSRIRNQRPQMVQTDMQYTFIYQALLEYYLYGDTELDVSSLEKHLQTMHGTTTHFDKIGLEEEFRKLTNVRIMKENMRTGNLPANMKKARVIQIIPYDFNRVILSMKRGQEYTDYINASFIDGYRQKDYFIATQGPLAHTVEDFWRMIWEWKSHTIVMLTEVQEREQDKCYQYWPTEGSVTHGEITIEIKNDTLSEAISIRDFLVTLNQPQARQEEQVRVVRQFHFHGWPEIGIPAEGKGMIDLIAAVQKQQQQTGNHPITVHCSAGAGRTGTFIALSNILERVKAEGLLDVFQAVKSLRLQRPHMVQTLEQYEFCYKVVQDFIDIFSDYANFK
PTPα, sequence (P18433 20-802): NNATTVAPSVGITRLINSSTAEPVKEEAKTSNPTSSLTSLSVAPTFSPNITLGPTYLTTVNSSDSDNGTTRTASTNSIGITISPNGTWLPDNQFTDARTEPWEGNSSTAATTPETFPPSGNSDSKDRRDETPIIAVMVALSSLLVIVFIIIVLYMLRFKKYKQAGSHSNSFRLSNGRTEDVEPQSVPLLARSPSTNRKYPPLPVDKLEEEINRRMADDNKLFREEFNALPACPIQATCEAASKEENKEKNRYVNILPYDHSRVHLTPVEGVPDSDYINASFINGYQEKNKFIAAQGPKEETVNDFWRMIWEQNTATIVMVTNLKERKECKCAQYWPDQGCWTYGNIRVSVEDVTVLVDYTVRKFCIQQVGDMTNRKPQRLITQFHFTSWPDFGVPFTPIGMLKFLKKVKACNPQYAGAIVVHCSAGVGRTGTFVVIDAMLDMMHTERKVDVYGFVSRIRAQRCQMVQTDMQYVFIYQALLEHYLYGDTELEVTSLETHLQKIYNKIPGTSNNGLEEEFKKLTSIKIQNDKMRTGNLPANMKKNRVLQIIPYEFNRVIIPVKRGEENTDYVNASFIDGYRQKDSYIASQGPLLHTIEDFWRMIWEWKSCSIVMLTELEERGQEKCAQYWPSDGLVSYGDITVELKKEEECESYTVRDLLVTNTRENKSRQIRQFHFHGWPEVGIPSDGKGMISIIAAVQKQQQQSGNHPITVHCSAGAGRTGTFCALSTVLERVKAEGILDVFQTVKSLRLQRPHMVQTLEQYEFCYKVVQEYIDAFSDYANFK
VHR, sequence (P51452 whole entry): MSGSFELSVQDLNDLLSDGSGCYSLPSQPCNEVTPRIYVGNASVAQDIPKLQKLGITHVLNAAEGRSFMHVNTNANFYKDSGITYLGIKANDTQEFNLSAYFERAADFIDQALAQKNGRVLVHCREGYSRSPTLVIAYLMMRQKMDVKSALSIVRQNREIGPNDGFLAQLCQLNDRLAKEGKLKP

What is called IC50 is the concentration that gives 50% inhibition. `Cc1c(Br)cc(NC(=O)CS(=O)(=O)O)cc1Br`: the IC50 against PTPε, against PTPα, against PTPγ, against Meg2, against VHX (setting [1]) and at VHX (setting [2]) was over 100 µM in each case. For the same molecule, the 50% inhibitory concentration (IC50) against VHR, on PTP1B and on SHP2 was over 100 µM throughout.
In the case of `O=C(CS(=O)(=O)O)Nc1ccc2nc(C(F)(F)F)[nH]c2c1`, the IC50 on PTPε, at PTPα, at PTPγ, at Meg2, on VHX (setting [3]) and at VHX (setting [4]) was over 100 µM in each case. The IC50 on VHR, against PTP1B, at SHP2 and on TcPTP (setting [5]) was over 100 µM throughout.
Consider `O=C(CS(=O)(=O)O)Nc1cnc2ccccc2c1`, for which the IC50 at PTPε, against PTPα, against PTPγ, against Meg2, on VHX (setting [3]) and at VHX (setting [4]) was over 100 µM in each case. Further, the IC50 on VHR, against PTP1B, at SHP2 and on TcPTP (setting [5]) was over 100 µM each time.
On to `O=C(NCCNC(=O)C(c1ccccc1)S(=O)(=O)O)c1cccc(C(=O)c2ccccc2)c1` (stereo not drawn) [Compound L319-02-A60], for which the IC50 at VHX (setting [3]), on VHR, against PTP1B, at SHP2 and on TcPTP (setting [5]) was over 200 µM each time.
For the molecule `O=C(NCc1ccc(NC(=O)C(c2ccccc2)S(=O)(=O)O)cc1)c1ccccc1-c1ccc(C(F)(F)F)cc1` (stereo not drawn) [Compound L319-05-A64], the IC50 was determined as 183 µM against PTP1B, 69 µM at SHP2 and 96 µM at TcPTP (setting [5]).
For the molecule `CCCCc1ccc(NC(=O)C(=O)Nc2ccccc2NC(=O)C(c2ccccc2)S(=O)(=O)O)cc1` (stereo not drawn) [Compound L319-21-M06], the concentration for half-maximal inhibition (IC50) on VHX (setting [3]), against VHR, at PTP1B, at SHP2 and on TcPTP (setting [5]) was over 50 µM in each case.
Take `O=C(Nc1cccc(OCc2ccccc2)c1)C(=O)Nc1ccccc1NC(=O)C(c1ccccc1)S(=O)(=O)O` (stereo not drawn) [Compound L319-21-M52]: the concentration for half-maximal inhibition (IC50) at VHX (setting [3]), against VHR, at PTP1B, on SHP2 and on TcPTP (setting [5]) was over 50 µM each time.
In the case of `Cc1c(Br)cc(NC(=O)C(c2ccccc2)S(=O)(=O)O)cc1Br` (stereo not drawn) [Compound L319M34], the IC50 on VHX (setting [1]) is over 200 µM; against VHX (setting [2]), 92 µM; at VHX (read-out: IC50 VHX; pNPP at Km, pH 7.0, 25° C.), 92 µM; on SHP2 it was over 100 µM; on TcPTP (IC50 TcPTP), over 100 µM.
Take `O=C(Nc1ccc(OCc2ccccc2)c(Cl)c1)C(c1ccccc1)S(=O)(=O)O` (stereo not drawn) [Compound L319M50]: the IC50 at VHX (setting [3]) was over 100 µM; against VHR it was over 200 µM; against PTP1B, over 200 µM; at SHP2, over 200 µM; at TcPTP (setting [5]), over 100 µM.
Consider `O=C(Nc1cccc(OCc2ccccc2)c1)C(c1ccccc1)S(=O)(=O)O` (stereo not drawn) [Compound L319M52], for which the IC50 is over 200 µM against PTPε; over 200 µM at PTPα; over 200 µM against PTPγ; over 200 µM against Meg2; 170 µM and > 100 µM on VHX (setting [3]); over 200 µM at VHR. Moreover, the IC50 is over 200 µM at PTP1B; over 200 µM at SHP2; 170 µM and > 100 µM on TcPTP (setting [5]).
For the molecule `O=C(Nc1ccc2nc(C(F)(F)F)[nH]c2c1)C(c1ccccc1)S(=O)(=O)O` (stereo not drawn) [Compound L319M54], the concentration for half-maximal inhibition (IC50) against PTPε, on PTPα, against PTPγ, at Meg2, on VHX (setting [3]) and on VHX (setting [4]) was over 200 µM each time. Also, the concentration for half-maximal inhibition (IC50) against VHR, at PTP1B, at SHP2 and at TcPTP (setting [5]) was over 200 µM in each case.
Regarding `O=C(Nc1ccc(N2CCOCC2)cc1)C(c1ccccc1)S(=O)(=O)O` (stereo not drawn) [Compound L319M68], the IC50 against PTPε, on PTPα, at PTPγ, at Meg2, on VHX (setting [3]) and at VHX (setting [4]) was over 200 µM throughout. The IC50 on VHR, at PTP1B, at SHP2 and on TcPTP (setting [5]) was over 200 µM in each case.
`O=C(Nc1cnc2ccccc2c1)C(c1ccccc1)S(=O)(=O)O` (stereo not drawn) [Compound L319M88]: the IC50 against PTPε, at PTPα, against PTPγ, against Meg2, on VHX (setting [3]) and on VHX (setting [4]) was over 200 µM throughout. Besides, the IC50 against VHR, on PTP1B, at SHP2 and on TcPTP (setting [5]) was over 200 µM throughout.
As for `O=C(Nc1ccc(-c2ccccc2)cc1)C(c1ccccc1)S(=O)(=O)O` (stereo not drawn) [Compound L319N08], the 50% inhibitory concentration (IC50) against VHX (setting [2]) was over 200 µM; at VHR it was over 200 µM; at PTP1B, over 200 µM; on SHP2 it was over 100 µM; against TcPTP (IC50 TcPTP), over 200 µM.
In the case of `O=C(Nc1nc2ccccc2s1)C(c1ccccc1)S(=O)(=O)O` (stereo not drawn) [Compound L319N15], the IC50 at PTPε, on PTPα, at PTPγ, against Meg2, at VHX (setting [3]) and at VHX (setting [4]) was over 200 µM throughout. Also, the IC50 is over 200 µM against VHR; over 200 µM against PTP1B; > 200 µM and > 100 µM and 160 µM at SHP2; over 200 µM on TcPTP (setting [5]).
Regarding `O=C(C(c1ccccc1)S(=O)(=O)O)N1CCC(Cc2ccccc2)CC1` (stereo not drawn) [Compound L319N46], the half-maximal inhibitory concentration (IC50) against PTPε, against PTPα, at PTPγ, at Meg2, at VHX (setting [3]) and against VHR was over 200 µM throughout. Besides, the IC50 against PTP1B, at SHP2 and at TcPTP (setting [5]) was over 200 µM in each case.

Source of the values: patent US10494332B2, “Protein tyrosine phosphatases or SHP2 inhibitors and uses thereof” (Indiana University Research and Technology Corporation, priority 2015, dated 2019).
